Counter-ions that a name gives are not always drawn.
Key:
[1] = test system: dogs; assay: ECG (EKG) disturbances in dogs; assay type: in vivo; conditions: dose which exhibits a coronary dilatory effect
[2] = test system: isolated ischiadicus nerves; assay: Local anaesthetic effect on isolated ischiadicus nerves of frogs; conditions: for ED50 (dose reducing by 50% the amplitude of the action-potential): isolated ischiadicus nerves of frogs
Procedure: 4. Local anaesthetical effect The local anaesthetic effect being characteristic of the majority of antiarrhythmical agents is tested on isolated ischiadicus nerves of frogs. The dose reducing by 50% the amplitude of the action-potential induced by stimulation of the nerves is considered as the rate (ED50) of the local anaesthetic effect.

[3] = test system: dogs; assay: Toxicity on dogs (own investigations); assay type: in vivo
[4] = test system: rats; assay: Acute toxicity on rats; assay type: in vivo; conditions: own investigations
Procedure: (§1) Acute toxicity is measured on rats weighing 150-200 g. The test-compound is injected into the tail wein, within a period of not more, than 5 seconds in a volume of 0.2 ml/100 g. The LD50 -value and the confidentiality limits thereof are evaluated on the basis of the number of animals died within 24 hours. See (J. Pharmacol. Exper. Ther. 96, 89 (1948))

[5] = test system: strophantine arrhythmia; assay: Antagonism of strophantine arrhythmia on dogs; assay type: in vivo
Procedure: 1. Antagonism of strophantine arrhythmia on dogs
(§2) On dogs anaesthetized with Nembutal (25 mg/kg) (iv.) disturbance of the cardiac rhythm was produced by the slow intravenous infusion of 40 - 80 μg/kg of strophantine, the latter amount depending on the sensibility of the animals. After the appearance of cumulated ventricular extrasystolae the test-compounds are intravenously injected in increasing doses and the arrhythmia antagonizing effect is regarded as positive, if the rhythm disturbance reappears after the cessation of the drug effect. Atrial and ventricular antifibrillatory effect on cats

[6] = test system: isolated left atrium; assay: Effect on electro-physiological characteristics of isolated left atria of rabbits (electric threshold, velocity of stimulus-transmission, maximal driving frequency)
Procedure: (§3) 3. effect on the electro-physiological characteristics of isolated right and left atria of rabbits
(§4) Rabbits are killed by blows on the napeon; the isolated right atrium which is surviving in a Locke-solution having a temperature of 32° C the spontane frequency and on the isolated left atrium the electric threshold, the velocity of stimulus-transmission and the maximal driving frequency is determined. (Detailed description of the test: see L. Szekeres and Gy. Papp: "Experimental cardiac arrhythmias and antiarrhythmic drugs." Publishing House of the Hungarian Academy of Sciences, Budapest, 1971). Upon the effect of the rising concentrations of the various test compounds, the increase of the electric threshold indicates the reduction of myocardial stimulability and the decrease of the maximal driving frequency indicates the prolongation of the refractory period.

[7] = test system: right atrium; assay: Atrial antifibrillatory effect on cats (atrial fibrillation threshold); assay type: in vivo
Procedure: as §2
(§5) In cats anaesthetized with an urethane mixture (60/300 mg/kg i.p.) the right atrium and the right ventriculum is irritated through a dipolar silver electrode with 20 Hz rectangular electric stimuli of […]. The threshold intensity (i.e. fibrillation threshold value) just eliciting the fibrillation of the ventriculum is determined. The capacity of the compounds to elevate the fibrillation threshold when administered intravenously is tested. (British J. Pharmacol. 17, 167, 1961).

[8] = test system: isolated right atrium; assay: Effect on spontaneous frequency of isolated right atria of rabbits
Procedure: as §3, §4

[9] = Acute toxicity on rats; assay type: in vivo; conditions: rat, in vivo, iv, tail vein injection, deaths within 24 hours, confidence 95 %
Procedure: as §1

[10] = test system: right ventriculum; assay: Ventricular antifibrillatory effect on cats (ventricular fibrillation threshold); assay type: in vivo
Procedure: as §2, §5

Structure (SMILES)	Period of antagonising strophantine arrhythmia ([5]; dose 2 mg/kg. i.v.) [s]	Maximal driving frequency/min, changed value ([6]; 5 mg./l.) [min⁻¹]	Velocity of stimulus-transmission, changed value ([6]; 5 mg./l.) [m/sec]	Velocity of stimulus-transmission, deviation from basic value ([6]; 5 mg./l.) [%]	Electric stimulus threshold, changed value ([6]; 5 mg/l.) [mA]	Maximal driving frequency/min, changed value ([6]; 10 mg./l.) [min⁻¹]	Velocity of stimulus-transmission, changed value ([6]; 10 mg./l.) [m/sec]	Velocity of stimulus-transmission, deviation from basic value ([6]; 10 mg./l.) [%]	Electric stimulus threshold, changed value ([6]; 10 mg/l.) [mA]	Atrial fibrillation threshold, changed value ([7]; 2 mg/kg iv.) [mA]	Spontaneous frequency/min., changed value ([8]; 5 mg/l.) [min⁻¹]	Spontaneous frequency/min., changed value ([8]; 10 mg/l.) [min⁻¹]	ED50 (dose reducing by 50% the amplitude of the action-potential) [2] [µg/mL]	LD50 at 24 h [9] [mg/kg]	Ventricular fibrillation threshold, changed value ([10]; 2 mg/kg iv.) [mA]	Atrial fibrillation threshold, changed value ([7]; 4 mg/kg iv.) [mA]	Atrial fibrillation threshold, changed value ([7]; 6 mg/kg iv.) [mA]	Ventricular fibrillation threshold, changed value ([10]; 4 mg/kg iv.) [mA]	Ventricular fibrillation threshold, changed value ([10]; 6 mg/kg iv.) [mA]	further results
COc1cc(C(=O)OCCCNCCC(c2ccccc2)c2ccccc2)cc(OC)c1OC.Cl [3-(3,3-diphenyl-propylamino)-propyl-3,4,5-trimethoxy-benzoate-hydrochloride, reference compound]																				ECG (EKG) disturbances [1]: often caused ECG (EKG) disturbances; wash-out from isolated frog nerve ([2]; isolated frog nerve): cound not be washed out from isolated frog nerve; toxicity relative to the compounds of the Formula I, dogs [3]: significantly more toxic than the compounds of the Formula I; toxicity relative to the compounds of the Formula I, rats [4]: significantly more toxic than the compounds of the Formula I
COc1cc(C(=O)OCCNC(C)c2ccccc2)cc(OC)c1OC (centres unmarked) [Compound 1, N-2-ethyl-1-phenyl-ethylamino-3,4,5,-trimethoxy-benzoate-hydrochloride]	213	267	0.34	-15	0.32	280	0.43	-17	0.21	1.02	121	115	710	28	0.97					Period of antagonising strophantine arrhythmia ([5]; dose 4 mg/kg. i.v.): 260 s
COc1cc(C(=O)OCCNC(C)C)cc(OC)c1OC [Compound 2]	287	334	0.32	-18	0.39	251	0.32	-27	0.62	0.66	134	120	570	57	0.82	0.90	0.89	0.99	1.46	Period of antagonising strophantine arrhythmia ([5]; dose 0,5 mg/kg. i.v.): 145 s; Period of antagonising strophantine arrhythmia ([5]; dose 1 mg/kg. i.v.): 228 s
COc1cc(C(=O)OCCNC2CCCCC2)cc(OC)c1OC [Compound 3, N-2-ethyl-cyclohexylamino-3,4,5-trimethoxy-benzoate-hydrochloride]		264	0.34	-40	0.31	226	0.20	-54	1.71	0.95	136	120	450	29	1.02	1.02	1.18	1.19	1.68	Maximal driving frequency/min, changed value ([6]; 1 mg./l.): 352 min⁻¹; Velocity of stimulus-transmission, changed value ([6]; 1 mg./l.): 0.49 m/sec; Electric stimulus threshold, changed value ([6]; 1 mg/l.): 0.26 mA; Electric stimulus threshold, deviation from basic value ([6]; 10 mg/l., in %): +217 /3/; Spontaneous frequency/min., changed value ([8]; 1 mg/l.): 116 min⁻¹; Ventricular fibrillation threshold, deviation from basic value ([10]; 6 mg/kg iv.): +121%

From patent US4010193A, “Basic ester” (Chinoin Gyogyszer-es Vegyeszeti Termekek Gyara RT, priority 1972, dated 1977)
